From patent US20220322719A1, “INTESTINAL HEALTH PROMOTING COMPOSITIONS” (NSE Products, Inc., priority 2016, published 2022)

Key:
[1] = test system: Caco-2 cell monolayers; assay: TNFα-induced decrease of transepithelial electrical resistance (TEER) in Caco-2 monolayers; assay type: cell-based; settings: FIGS. 17-20
[2] = 500 mg isotopically labeled, single dose, male subjects (n=8); cited from earlier work

Structure (SMILES)	TNFα induced losses of intestinal barrier integrity (TEER) [1]	adverse effects [2]	time metabolites were present in the circulation [2]
Oc1cc(O)c2c(c1)OC(c1ccc(O)c(O)c1)C(O)C2 (stereo not drawn) [catechins, catechin]	prevents TNFα induced losses of intestinal barrier integrity	–	–
OC[C@H]1O[C@@H](Oc2cc3c(O)cc(O)cc3[o+]c2-c2ccc(O)c(O)c2)[C@H](O)[C@@H](O)[C@@H]1O [cyanidin-3-glucoside]	–	no adverse effects	less than or equal to 48 hours
